Measurements published in patent US20130109682A1, “CYCLIC ETHER COMPOUNDS USEFUL AS KINASE INHIBITORS” (NOVARTIS AG, priority 2010, published 2013).

Legend:
[1] = tested on: KMS11 (human myeloma cell line); assay: Cell proliferation assay (CellTiter-Glo), KMS11; type: cell-based; conditions: Homo sapiens, KMS-11; KMS11 cells, cell proliferation; read-out: KMS11-Luc EC50
Procedure, shortened: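 EC50 derived from CellTiter-Glo luminescence after 3-day exposure at 37° C. Compound was diluted to 2× in medium and added to an equal volume of cells. KMS11 myeloma cells were plated on assay day at 2000/well in IMDM with 10% FBS and sodium pyruvate.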

PIM1 = PIM1 (Homo sapiens, UniProt P11309); assay: Pim 1 AlphaScreen assay (high ATP); type: biochemical; conditions: read-out: Pim1 IC50
Chain of PIM1 (P11309 whole entry): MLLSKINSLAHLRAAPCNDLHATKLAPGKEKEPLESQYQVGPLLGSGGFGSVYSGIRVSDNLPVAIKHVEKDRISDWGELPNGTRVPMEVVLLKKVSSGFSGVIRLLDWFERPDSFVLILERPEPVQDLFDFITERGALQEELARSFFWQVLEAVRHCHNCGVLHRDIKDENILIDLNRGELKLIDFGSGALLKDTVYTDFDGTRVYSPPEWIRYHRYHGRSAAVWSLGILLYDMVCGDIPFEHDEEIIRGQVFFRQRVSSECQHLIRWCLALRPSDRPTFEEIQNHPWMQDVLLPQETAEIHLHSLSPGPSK
Procedure: (§1) Pim1, Pim2, Pim3 AlphaScreen Assay Pim 1, Pim 2 & Pim 3 AlphaScreen assays using high ATP (11-125×ATP Km) were used to determine the biochemical activity of the inhibitors. The activity of Pim 1, Pim 2, & Pim 3 is measured using a homogeneous bead based system quantifying the amount of phosphorylated peptide substrate resulting from kinase-catalyzed phosphoryl transfer to a peptide substrate. Compounds to be tested are dissolved in 100% DMSO and directly distributed to a white 384-well plate at […] per well. To start the reaction, 5 μl of 100 nM Bad peptide (Biotin-AGAGRSRHSSYPAGT —OH) and ATP (concentrations described below) in assay buffer (50 mM Hepes, pH=7.5, 5 mM MgCl2, 0.05% BSA, 0.01% Tween-20, 1 mM DTT) is added to each well. This is followed by the addition of 5 μl/well of Pim 1, Pim 2 or Pim 3 kinase in assay buffer (concentrations described below). Final assay concentrations (described below) are in 2.5% DMSO. The reactions are performed for ˜2 hours, then stopped by the addition of 10 μl of 0.75 μg/ml anti-phospho Ser/Thr antibody (Cell Signaling), 10 μg/ml Protein A AlphaScreen beads (Perkin Elmer), and 10 μg/ml streptavidin coated AlphaScreen beads in stop/detection buffer (50 mM EDTA, 95 mM Tris, pH=7.5, 0.01% Tween-20). The stopped reactions are incubated overnight in the dark. The phosphorylated peptide is detected via an […] initiated chemiluminescence/fluorescence cascade using the Envision plate reader (Perkin Elmer).
(§2) IC50, the half maximal inhibitory concentration, represents the concentration of a test compound that is required for 50% inhibition of its target in vitro under the described assay conditions.

PIM2 = PIM2 (Homo sapiens, UniProt Q9P1W9); assay: Pim 2 AlphaScreen assay (high ATP); type: biochemical; conditions: read-out: Pim2 IC50
Chain of PIM2 (Q9P1W9 whole entry): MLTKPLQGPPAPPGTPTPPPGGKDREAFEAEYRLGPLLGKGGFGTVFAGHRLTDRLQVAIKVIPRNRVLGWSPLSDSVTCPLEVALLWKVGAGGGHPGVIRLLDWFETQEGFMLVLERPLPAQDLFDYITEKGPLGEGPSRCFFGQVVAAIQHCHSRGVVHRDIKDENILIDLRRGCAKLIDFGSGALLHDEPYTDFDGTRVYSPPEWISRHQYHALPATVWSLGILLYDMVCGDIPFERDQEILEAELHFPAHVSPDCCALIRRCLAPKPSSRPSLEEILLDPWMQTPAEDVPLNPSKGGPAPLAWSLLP
Procedure, shortened: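 IC50 values rest on detection of phosphorylated Bad peptide: after a ~2 h kinase reaction, an EDTA stop buffer containing anti-phospho Ser/Thr antibody, Protein A and streptavidin AlphaScreen beads was added and read after overnight dark incubation. ATP was high (11-125× Km), with 2.5% DMSO in pH 7.5 Hepes buffer containing MgCl2, BSA, Tween-20 and DTT.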

PIM3 = PIM3 (Homo sapiens, UniProt Q86V86); assay: Pim 3 AlphaScreen assay (high ATP); type: biochemical; conditions: read-out: Pim3 IC50
Procedure: as §1, §2

GSK3β = GSK3β (Homo sapiens, UniProt P49841); assay: GSK3β ATP depletion assay; type: biochemical; conditions: ATP depletion assay; read-out: GSK3b IC50
Chain of GSK3β (P49841 whole entry, species assumed): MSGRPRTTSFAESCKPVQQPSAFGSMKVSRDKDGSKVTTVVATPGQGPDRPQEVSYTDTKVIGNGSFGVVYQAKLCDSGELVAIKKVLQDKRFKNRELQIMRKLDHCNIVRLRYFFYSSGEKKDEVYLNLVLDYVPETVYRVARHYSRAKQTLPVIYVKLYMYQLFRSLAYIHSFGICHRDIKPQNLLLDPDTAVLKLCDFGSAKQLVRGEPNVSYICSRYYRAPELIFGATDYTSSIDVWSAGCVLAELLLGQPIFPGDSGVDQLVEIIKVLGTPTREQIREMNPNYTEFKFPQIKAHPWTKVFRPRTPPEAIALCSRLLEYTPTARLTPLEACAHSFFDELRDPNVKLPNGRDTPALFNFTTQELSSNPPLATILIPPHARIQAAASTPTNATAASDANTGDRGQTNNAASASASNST
Procedure, shortened: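 Kinase activity is read as ATP consumption: luciferase luminescence reports the ATP remaining once roughly half of the 2 μM ATP is used. Reaction mix: 5 nM GSK3β, 10 μM b-CREB peptide, 50 mM Tris pH 7.5, 15 mM MgCl2, 1 mM DTT, 0.1% BSA, 2.5% DMSO. Enzyme and peptide are preincubated 15 min before ATP is added.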

CC(C)[C@@H]1C[C@H](N)CC(c2ccncc2NC(=O)c2ccnc(-c3c(F)cccc3F)n2)O1 (stereo in doubt) [Example 328, N-(4-((2S,4S,6S)-4-amino-6-isopropyltetrahydro-2H-pyran-2-yl)pyridin-3-yl)-2-(2,6-difluorophenyl)pyrimidine-4-carboxamide]
EC50 [1]: 540 nM | IC50 (PIM1): 7 nM | IC50 (PIM2): 165 nM | IC50 (PIM3): 172 nM

C[C@]1(O)[C@H](N)C[C@H](c2ccncc2NC(=O)c2csc(-c3c(F)cccc3F)n2)O[C@@H]1C1CC1 [Example 263, N-(4-((2R,4R,5S,6R)-4-amino-6-cyclopropyl-5-hydroxy-5-methyltetrahydro-2H-pyran-2-yl)pyridin-3-yl)-2-(2,6-difluorophenyl)thiazole-4-carboxamide]
IC50 (GSK3β): 334 nM | IC50 (PIM1): 1.26 nM | IC50 (PIM2): 72.7 nM | IC50 (PIM3): 23.1 nM

Cc1cc(F)c(-c2nc(C(=O)Nc3cnccc3[C@H]3C[C@@H](N)[C@](C)(O)[C@@H](C4CC4)O3)ccc2F)c(F)c1 [Example 264, N-(4-((2R,4R,5S,6R)-4-amino-6-cyclopropyl-5-hydroxy-5-methyltetrahydro-2H-pyran-2-yl)pyridin-3-yl)-6-(2,6-difluoro-4-methylphenyl)-5-fluoropicolinamide]
IC50 (GSK3β): 1790 nM | IC50 (PIM1): 0.11 nM | IC50 (PIM2): 8.1 nM | IC50 (PIM3): 2.4 nM

COc1cc(F)c(-c2nc(C(=O)Nc3cnccc3[C@H]3C[C@@H](N)[C@](C)(O)[C@@H](C4CC4)O3)ccc2F)c(F)c1 [Example 265, N-(4-((2R,4R,5S,6R)-4-amino-6-cyclopropyl-5-hydroxy-5-methyltetrahydro-2H-pyran-2-yl)pyridin-3-yl)-6-(2,6-difluoro-4-methoxyphenyl)-5-fluoropicolinamide]
IC50 (GSK3β): 1050 nM | IC50 (PIM1): 0.13 nM | IC50 (PIM2): 9.6 nM | IC50 (PIM3): 2.3 nM

C[C@@]1(O)[C@@H](N)C[C@@H](c2ccncc2NC(=O)c2ccc(F)c(-c3c(F)cccc3F)n2)OC12CC2 [Example 266, N-(4-((5S,7S,8R)-7-amino-8-hydroxy-8-methyl-4-oxaspiro[2.5]octan-5-yl)pyridin-3-yl)-6-(2,6-difluorophenyl)-5-fluoropicolinamide]
IC50 (GSK3β): 6060 nM | IC50 (PIM1): 1.98 nM | IC50 (PIM2): 394 nM | IC50 (PIM3): 27.5 nM

C[C@]1(O)[C@H](N)C[C@H](c2ccncc2NC(=O)c2ccc(F)c(-c3c(F)cccc3F)n2)OC12CC2 [Example 267, N-(4-((5R,7R,8S)-7-amino-8-hydroxy-8-methyl-4-oxaspiro[2.5]octan-5-yl)pyridin-3-yl)-6-(2,6-difluorophenyl)-5-fluoropicolinamide]
IC50 (GSK3β): 6930 nM | IC50 (PIM1): 2.52 nM | IC50 (PIM2): 213 nM | IC50 (PIM3): 29.7 nM

CC(C)(C)[C@H]1O[C@@H](c2ccncc2NC(=O)c2csc(-c3c(F)cccc3F)n2)C[C@@H](N)[C@@H]1O [Example 268, N-(4-((2R,4R,5S,6R)-4-amino-6-tert-butyl-5-hydroxytetrahydro-2H-pyran-2-yl)pyridin-3-yl)-2-(2,6-difluorophenyl)thiazole-4-carboxamide]
IC50 (GSK3β): 207 nM | IC50 (PIM1): 0.16 nM | IC50 (PIM2): 20.3 nM | IC50 (PIM3): 3.6 nM

COc1cc(F)c(-c2nc(C(=O)Nc3cnccc3[C@H]3C[C@@H](N)[C@H](O)[C@@H](C(C)(C)C)O3)ccc2F)c(F)c1 [Example 269, N-(4-((2R,4R,5S,6R)-4-amino-6-tert-butyl-5-hydroxytetrahydro-2H-pyran-2-yl)pyridin-3-yl)-6-(2,6-difluoro-4-methoxyphenyl)-5-fluoropicolinamide]
IC50 (GSK3β): 613 nM | IC50 (PIM1): 0.03 nM | IC50 (PIM2): 2.4 nM | IC50 (PIM3): 0.5 nM

Cc1cc(F)c(-c2nc(C(=O)Nc3cnccc3[C@H]3C[C@@H](N)[C@H](O)[C@@H](C(C)(C)C)O3)ccc2F)c(F)c1 [Example 270, N-(4-((2R,4R,5S,6R)-4-amino-6-tert-butyl-5-hydroxytetrahydro-2H-pyran-2-yl)pyridin-3-yl)-6-(2,6-difluoro-4-methylphenyl)-5-fluoropicolinamide]
IC50 (GSK3β): 1060 nM | IC50 (PIM1): 0.03 nM | IC50 (PIM2): 3.1 nM | IC50 (PIM3): 0.5 nM

CC(C)[C@H]1O[C@@H](c2ccncc2NC(=O)c2ccc(F)c(-c3c(F)cccc3F)n2)C[C@@H](N)[C@@H]1O [Example 271, N-(4-((2R,4R,5S,6R)-4-amino-5-hydroxy-6-isopropyltetrahydro-2H-pyran-2-yl)pyridin-3-yl)-6-(2,6-difluorophenyl)-5-fluoropicolinamide]
IC50 (GSK3β): 2750 nM | IC50 (PIM1): 0.15 nM | IC50 (PIM2): 4.3 nM | IC50 (PIM3): 2.1 nM

CC(C)[C@H]1O[C@@H](c2ccncc2NC(=O)c2nc(-c3c(F)cccc3F)ncc2N)C[C@@H](N)[C@@H]1O [Example 272, 5-amino-N-(4-((2R,4R,5S,6R)-4-amino-5-hydroxy-6-isopropyltetrahydro-2H-pyran-2-yl)pyridin-3-yl)-2-(2,6-difluorophenyl)pyrimidine-4-carboxamide]
IC50 (GSK3β): 1220 nM | IC50 (PIM1): 0.66 nM | IC50 (PIM2): 10.9 nM | IC50 (PIM3): 9 nM

CC(C)(C)[C@H]1O[C@@H](c2ccncc2NC(=O)c2ccnc(-c3c(F)cccc3F)n2)C[C@@H](N)[C@@H]1O [Example 277, N-(4-((2R,4R,5S,6R)-4-amino-6-(tert-butyl)-5-hydroxytetrahydro-2H-pyran-2-yl)pyridin-3-yl)-2-(2,6-difluorophenyl)pyrimidine-4-carboxamide]
IC50 (GSK3β): 499 nM | IC50 (PIM1): 1.05 nM | IC50 (PIM2): 27.5 nM | IC50 (PIM3): 22.7 nM

C[C@]1(O)[C@H](N)C[C@H](c2ccncc2NC(=O)c2ccc(F)c(-c3c(F)cccc3F)n2)OC12CC2 [Example 289, N-(4-((5R,7R,8S)-7-amino-8-hydroxy-8-methyl-4-oxaspiro[2.5]octan-5-yl)pyridin-3-yl)-6-(2,6-difluorophenyl)-5-fluoropicolinamide]
IC50 (GSK3β): 6930 nM | IC50 (PIM1): 2.5 nM | IC50 (PIM2): 213 nM | IC50 (PIM3): 29.7 nM

CC(C)[C@H]1O[C@@H](c2ccncc2NC(=O)c2ccc(F)c(-c3c(F)ccc(C#N)c3F)n2)C[C@@H](N)[C@@H]1O [Example 329, N-(4-((2R,4R,5S,6R)-4-amino-5-hydroxy-6-isopropyltetrahydro-2H-pyran-2-yl)pyridin-3-yl)-6-(3-cyano-2,6-difluorophenyl)-5-fluoropicolinamide]
EC50 [1]: 190 nM | IC50 (PIM1): 0.7 nM | IC50 (PIM2): 14.7 nM | IC50 (PIM3): 14.7 nM

CC(C)[C@H]1O[C@@H](c2ccncc2NC(=O)c2ccc(F)c(-c3ccc(C#N)cc3F)n2)C[C@@H](N)[C@@H]1O [Example 330, N-(4-((2R,4R,5S,6R)-4-amino-5-hydroxy-6-isopropyltetrahydro-2H-pyran-2-yl)pyridin-3-yl)-6-(4-cyano-2-fluorophenyl)-5-fluoropicolinamide]
EC50 [1]: 2430 nM | IC50 (PIM1): 2 nM | IC50 (PIM2): 229 nM | IC50 (PIM3): 232 nM

CC[C@H]1O[C@@H](c2ccncc2NC(=O)c2ccc(F)c(-c3c(F)cccc3F)n2)C[C@@H](N)[C@@H]1O [Example 331, N-(4-((2R,4R,5S,6R)-4-amino-6-ethyl-5-hydroxytetrahydro-2H-pyran-2-yl)pyridin-3-yl)-6-(2,6-difluorophenyl)-5-fluoropicolinamide]
EC50 [1]: 70 nM | IC50 (PIM1): 0.2 nM | IC50 (PIM2): 11.8 nM | IC50 (PIM3): 6 nM

CC[C@@H]1O[C@H](c2ccncc2NC(=O)c2ccc(F)c(-c3c(F)cccc3F)n2)C[C@H](N)[C@H]1O [Example 332, N-(4-((2S,4S,5R,6S)-4-amino-6-ethyl-5-hydroxytetrahydro-2H-pyran-2-yl)pyridin-3-yl)-6-(2,6-difluorophenyl)-5-fluoropicolinamide]
EC50 [1]: 4200 nM | IC50 (PIM1): 6.3 nM | IC50 (PIM2): 310 nM | IC50 (PIM3): 157 nM
